Measured values reported in paper PMC11494501, “AlphaFold Ensemble Competition Screens Enable Peptide Binder Design with Single-Residue Sensitivity” (ACS Chemical Biology, 2024).
Residues, ends and D or L forms follow the SMILES beside them. *: point of attachment. FITC = O=C1OC2(c3ccc(O)cc3Oc3cc(O)ccc32)c2ccc(NC(=S)*)cc21; βAla = NCCC(=O)O

target: T1, Ub (Homo sapiens, UniProt P0CG48); assay: not given; settings: read-out: dissociation constant of Ub:UIM-1 complex; cited from earlier work
Source text: We selected the UIM-1 sequence as an experimental model system because it is well characterized, having both the reported dissociation constant and NMR structure (pdb: 1q0w, Figure 1a,c). […] The UIM-1 sequence binds to Ub primarily through a series of hydrophobic contacts around the characteristic “AxxxS” UIM pattern of alanine and serine residues spaced four positions apart. Further, polar and salt bridge contacts may also stabilize the complex. […] The peptide concentration was mainta ...

For “UIM-1: first UIM of the Vps27 protein; literature Kd from a slightly longer variant of the peptide”, the Kd is given as 277 µM.

target: T1, Ub; assay: Fluorescence polarization (FP) titration of labelled peptide against Ub; settings: 1c (C-terminal Lys side-chain label) relative to 1a (N-terminal label), from FP Kd

In the case of `CC[C@H](C)[C@H](NC(=O)[C@H](C)NC(=O)[C@H](CCCCN)NC(=O)[C@H](CCCNC(=N)N)NC(=O)[C@@H](NC(=O)[C@H](CC(C)C)NC(=O)[C@H](CCC(=O)O)NC(=O)[C@H](CCC(=O)O)NC(=O)[C@H](CCC(=O)O)NC(=O)[C@H](CC(=O)O)NC(=O)[C@H](CCC(=O)O)NC(=O)CNC(C)=O)[C@@H](C)CC)C(=O)N[C@@H](CCC(=O)O)C(=O)N[C@@H](CC(C)C)C(=O)N[C@@H](CO)C(=O)N[C@@H](CC(C)C)C(=O)N[C@@H](CCCCN)C(=O)N[C@@H](CCC(=O)O)C(=O)N[C@@H](CO)C(=O)NCC(=O)N[C@@H](CCCCNC(=S)Nc1ccc2c(c1)C(=O)OC21c2ccc(O)cc2Oc2cc(O)ccc21)C(N)=O` [1c] (Ac-GEDEEELIRKAIELSLKESGK(FITC)-NH2), the “reduction in binding energy” value is reported as 6.5 kJ mol^–1.

same assay, conditions: relative to 1a (UIM-1), from FP Kd; positive = weaker binding

Point of comparison: `CC[C@H](C)[C@H](NC(=O)[C@H](C)NC(=O)[C@H](CCCCN)NC(=O)[C@H](CCCNC(=N)N)NC(=O)[C@@H](NC(=O)[C@H](CC(C)C)NC(=O)[C@H](CCC(=O)O)NC(=O)[C@H](CCC(=O)O)NC(=O)[C@H](CCC(=O)O)NC(=O)[C@H](CC(=O)O)NC(=O)[C@H](CCC(=O)O)NC(=O)CNC(=O)CCNC(=S)Nc1ccc2c(c1)C(=O)OC21c2ccc(O)cc2Oc2cc(O)ccc21)[C@@H](C)CC)C(=O)N[C@@H](CCC(=O)O)C(=O)N[C@@H](CC(C)C)C(=O)N[C@@H](CO)C(=O)N[C@@H](CCC(=O)O)C(=O)N[C@@H](CCCCN)C(=O)N[C@@H](CCC(=O)O)C(=O)N[C@@H](CO)C(=O)NCC(N)=O` [11a] ({FITC-βAla}-GEDEEELIRKAIELSEKESG-NH2), “ΔΔG for binding Ub” value 1.08 kcal/mol. Against it:
- CC[C@H](C)[C@H](NC(=O)[C@H](C)NC(=O)[C@H](CCCCN)NC(=O)[C@H](CCCNC(=N)N)NC(=O)[C@@H](NC(=O)[C@H](CCC(=O)O)NC(=O)[C@H](CCC(=O)O)NC(=O)[C@H](CCC(=O)O)NC(=O)[C@H](CCC(=O)O)NC(=O)[C@H](CC(=O)O)NC(=O)[C@H](CCC(=O)O)NC(=O)CNC(=O)CCNC(=S)Nc1ccc2c(c1)C(=O)OC21c2ccc(O)cc2Oc2cc(O)ccc21)[C@@H](C)CC)C(=O)N[C@@H](CCC(=O)O)C(=O)N[C@@H](CC(C)C)C(=O)N[C@@H](CO)C(=O)N[C@@H](CC(C)C)C(=O)N[C@@H](CCCCN)C(=O)N[C@@H](CCC(=O)O)C(=O)N[C@@H](CO)C(=O)NCC(N)=O [7a] ({FITC-βAla}-GEDEEEEIRKAIELSLKESG-NH2) — lower, 0.669 kcal/mol
- CC[C@H](C)[C@H](NC(=O)[C@H](C)NC(=O)[C@H](CCCCN)NC(=O)[C@H](CCCNC(=N)N)NC(=O)[C@@H](NC(=O)[C@H](CC(C)C)NC(=O)[C@H](CCC(=O)O)NC(=O)[C@H](CCC(=O)O)NC(=O)[C@H](CCC(=O)O)NC(=O)[C@H](CC(=O)O)NC(=O)[C@H](CCC(=O)O)NC(=O)CNC(=O)CCNC(=S)Nc1ccc2c(c1)C(=O)OC21c2ccc(O)cc2Oc2cc(O)ccc21)[C@@H](C)CC)C(=O)N[C@@H](CCC(=O)O)C(=O)N[C@@H](C)C(=O)N[C@@H](CO)C(=O)N[C@@H](CC(C)C)C(=O)N[C@@H](CCCCN)C(=O)N[C@@H](CCC(=O)O)C(=O)N[C@@H](CO)C(=O)NCC(N)=O [5a] ({FITC-βAla}-GEDEEELIRKAIEASLKESG-NH2) — lower, 0.239 kcal/mol
- CC[C@H](C)[C@H](NC(=O)[C@H](CC(C)C)NC(=O)[C@H](CCC(=O)O)NC(=O)[C@H](CCC(=O)O)NC(=O)[C@H](CCC(=O)O)NC(=O)[C@H](CC(=O)O)NC(=O)[C@H](CCC(=O)O)NC(=O)CNC(=O)CCNC(=S)Nc1ccc2c(c1)C(=O)OC21c2ccc(O)cc2Oc2cc(O)ccc21)C(=O)N[C@@H](CCCNC(=N)N)C(=O)N[C@@H](CCCCN)C(=O)N[C@@H](C)C(=O)N[C@@H](C)C(=O)N[C@@H](CCC(=O)O)C(=O)N[C@@H](CC(C)C)C(=O)N[C@@H](CO)C(=O)N[C@@H](CC(C)C)C(=O)N[C@@H](CCCCN)C(=O)N[C@@H](CCC(=O)O)C(=O)N[C@@H](CO)C(=O)NCC(N)=O [4a] ({FITC-βAla}-GEDEEELIRKAAELSLKESG-NH2) — higher, 1.67 kcal/mol
- CC[C@H](C)[C@H](NC(=O)[C@H](C)NC(=O)[C@H](CCCCN)NC(=O)[C@H](CCCNC(=N)N)NC(=O)[C@@H](NC(=O)[C@H](CC(C)C)NC(=O)[C@H](CCC(=O)O)NC(=O)[C@H](CCC(=O)O)NC(=O)[C@H](CCC(=O)O)NC(=O)[C@H](CC(=O)O)NC(=O)[C@H](CCC(=O)O)NC(=O)CNC(=O)CCNC(=S)Nc1ccc2c(c1)C(=O)OC21c2ccc(O)cc2Oc2cc(O)ccc21)[C@@H](C)CC)C(=O)N[C@@H](CCC(=O)O)C(=O)N[C@@H](CC(C)C)C(=O)N[C@@H](CO)C(=O)N[C@@H](C)C(=O)N[C@@H](CCCCN)C(=O)N[C@@H](CCC(=O)O)C(=O)N[C@@H](CO)C(=O)NCC(N)=O [6a] ({FITC-βAla}-GEDEEELIRKAIELSAKESG-NH2) — higher, 1.12 kcal/mol
- CC[C@H](C)[C@H](NC(=O)[C@H](C)NC(=O)[C@H](CCCCN)NC(=O)[C@H](CCCNC(=N)N)NC(=O)[C@H](C)NC(=O)[C@H](CC(C)C)NC(=O)[C@H](CCC(=O)O)NC(=O)[C@H](CCC(=O)O)NC(=O)[C@H](CCC(=O)O)NC(=O)[C@H](CC(=O)O)NC(=O)[C@H](CCC(=O)O)NC(=O)CNC(=O)CCNC(=S)Nc1ccc2c(c1)C(=O)OC21c2ccc(O)cc2Oc2cc(O)ccc21)C(=O)N[C@@H](CCC(=O)O)C(=O)N[C@@H](CC(C)C)C(=O)N[C@@H](CO)C(=O)N[C@@H](CC(C)C)C(=O)N[C@@H](CCCCN)C(=O)N[C@@H](CCC(=O)O)C(=O)N[C@@H](CO)C(=O)NCC(N)=O [3a] ({FITC-βAla}-GEDEEELARKAIELSLKESG-NH2) — higher, 1.89 kcal/mol
- CC[C@H](C)[C@H](NC(=O)[C@H](C)NC(=O)[C@H](CCCCN)NC(=O)[C@H](CCCNC(=N)N)NC(=O)[C@@H](NC(=O)[C@H](CC(C)C)NC(=O)[C@H](CCC(=O)O)NC(=O)[C@H](CCC(=O)O)NC(=O)[C@H](CCC(=O)O)NC(=O)[C@H](CC(=O)O)NC(=O)[C@H](CCC(=O)O)NC(=O)CNC(=O)CCNC(=S)Nc1ccc2c(c1)C(=O)OC21c2ccc(O)cc2Oc2cc(O)ccc21)[C@@H](C)CC)C(=O)N[C@@H](CCC(=O)O)C(=O)N[C@@H](CCC(=O)O)C(=O)N[C@@H](CO)C(=O)N[C@@H](CC(C)C)C(=O)N[C@@H](CCCCN)C(=O)N[C@@H](CCC(=O)O)C(=O)N[C@@H](CO)C(=O)NCC(N)=O [10a] ({FITC-βAla}-GEDEEELIRKAIEESLKESG-NH2) — lower, -0.072 kcal/mol
- CC[C@H](C)[C@H](NC(=O)[C@H](CC(C)C)NC(=O)[C@H](CCC(=O)O)NC(=O)[C@H](CCC(=O)O)NC(=O)[C@H](CCC(=O)O)NC(=O)[C@H](CC(=O)O)NC(=O)[C@H](CCC(=O)O)NC(=O)CNC(=O)CCNC(=S)Nc1ccc2c(c1)C(=O)OC21c2ccc(O)cc2Oc2cc(O)ccc21)C(=O)N[C@@H](CCCNC(=N)N)C(=O)N[C@@H](CCCCN)C(=O)N[C@@H](C)C(=O)N[C@@H](CC(C)C)C(=O)N[C@@H](CCC(=O)O)C(=O)N[C@@H](CC(C)C)C(=O)N[C@@H](CO)C(=O)N[C@@H](CC(C)C)C(=O)N[C@@H](CCCCN)C(=O)N[C@@H](CCC(=O)O)C(=O)N[C@@H](CO)C(=O)NCC(N)=O [9a] ({FITC-βAla}-GEDEEELIRKALELSLKESG-NH2) — lower, 0.693 kcal/mol
- CC[C@H](C)[C@H](NC(=O)[C@H](C)NC(=O)[C@H](CCCCN)NC(=O)[C@H](CCCNC(=N)N)NC(=O)[C@H](Cc1ccccc1)NC(=O)[C@H](CC(C)C)NC(=O)[C@H](CCC(=O)O)NC(=O)[C@H](CCC(=O)O)NC(=O)[C@H](CCC(=O)O)NC(=O)[C@H](CC(=O)O)NC(=O)[C@H](CCC(=O)O)NC(=O)CNC(=O)CCNC(=S)Nc1ccc2c(c1)C(=O)OC21c2ccc(O)cc2Oc2cc(O)ccc21)C(=O)N[C@@H](CCC(=O)O)C(=O)N[C@@H](CC(C)C)C(=O)N[C@@H](CO)C(=O)N[C@@H](CC(C)C)C(=O)N[C@@H](CCCCN)C(=O)N[C@@H](CCC(=O)O)C(=O)N[C@@H](CO)C(=O)NCC(N)=O [8a] ({FITC-βAla}-GEDEEELFRKAIELSLKESG-NH2) — lower, 0.502 kcal/mol

same assay, conditions: relative to 1a, from FP Kd

With `CC[C@H](C)[C@H](NC(=O)[C@H](C)NC(=O)[C@H](CCCCN)NC(=O)[C@H](CCCNC(=N)N)NC(=O)[C@@H](NC(=O)[C@H](CC(C)C)NC(=O)[C@H](CCC(=O)O)NC(=O)[C@H](CCC(=O)O)NC(=O)[C@H](CCC(=O)O)NC(=O)[C@H](CC(=O)O)NC(=O)[C@H](CCC(=O)O)NC(=O)CNC(=O)CCNC(=S)Nc1ccc2c(c1)C(=O)OC21c2ccc(O)cc2Oc2cc(O)ccc21)[C@@H](C)CC)C(=O)N[C@@H](CCC(=O)O)C(=O)N[C@@H](CCC(=O)O)C(=O)N[C@@H](CO)C(=O)N[C@@H](CC(C)C)C(=O)N[C@@H](CCCCN)C(=O)N[C@@H](CCC(=O)O)C(=O)N[C@@H](CO)C(=O)NCC(N)=O` [10a] ({FITC-βAla}-GEDEEELIRKAIEESLKESG-NH2) the additional binding energy was 0.3 kJ mol^–1.
